{"source": "paper PMC9429672", "about": "“Structure and diffusive dynamics of aspartate α-decarboxylase (ADC) liganded with D-serine in aqueous solution” (Physical Chemistry Chemical Physics, 2022)", "target": "T1, aspartate α-decarboxylase (ADC) (Escherichia coli, UniProt A0A4Y8GT61)", "T1 construct": "gene panD; recombinant, purified from E. coli by earlier protocols; zymogen self-cleaved into alpha and beta chains, pyruvoyl cofactor at beta N-terminus; homotetramer", "test": "X-ray crystal structure of soaked crystal", "type": "binding", "conditions": "crystals in 1.8 M ammonium sulphate, 100 mM sodium citrate pH 4.5, D-serine soak about 2 min; active site; two ligand conformers (60% / 40% occupancy); inhibitor"}
{"smiles": "N[C@H](CO)C(=O)O", "note": "[D-serine]", "values": [{"measurement": "X-ray crystal structure of soaked crystal", "value": "The crystal structure of ADC in complex with D-serine was determined"}]}
